Reference: patent US9475776B2, “PRMT1 inhibitors and uses thereof” (Epizyme, Inc., priority 2013, dated 2016)

Tests used:
PRMT1 = biological target: T1, PRMT1 (Homo sapiens, UniProt Q99873); assay: PRMT1 biochemical assay (3H-SAM Flashplate, histone H4 peptide substrate); details: GST-tagged full-length human PRMT1 0.5 nM, 30 min preincubation, peptide 20 nM
T1 construct: GST-tagged PRMT1; made in house; host or cells: High Five insect cells (baculovirus, pFastBacI)
Excerpt: S-adenosylmethionine (SAM), S-adenosylhomocysteine (SAH), bicine, Tween20, dimethylsulfoxide (DMSO), bovine skin gelatin (BSG), and Tris(2-carboxyethyl)phosphine hydrochloride solution (TCEP) were purchased from Sigma-Aldrich at the highest level of purity possible. ^3H-SAM was purchase from American Radiolabeled Chemicals with a specific activity of 80 Ci/mmol. 384-well streptavidin Flashplates were purchased from PerkinElmer.
Peptide representative of human histone H4 residues 36-50 was synthesized with an N-terminal linker-affinity tag motif and a C-terminal amide cap by 21st Century Biochemicals. The peptide was purified by high-performance liquid chromatography (HPLC) to greater than 95% purity and confirmed by liquid chromatography mass spectrometry (LC-MS). The sequence was Biot-Ahx-RLARRGGVKRISGLI-amide (SEQ ID NO.: 1).
Full-length human PRMT1 isoform 1 (NM_001536.5) transcript clone was amplified from an HEK 293 cDNA library, incorporating flanking 5′ sequence encoding a FLAG tag (DYKDDDDK) (SEQ ID NO.:2) fused directly to Met 1 of PRMT1. The amplified gene was subcloned into pFastBacI (Life Technologies) modified to encode an N-terminal GST tag and a TEV cleavage sequence ([…] […] […] […]) (SEQ ID NO.:3) fused to Asp of the Flag tag of PRMT1.
Recombinant baculovirus were generated according to Bac-to-Bac kit instructions (Life Technologies). Protein over-expression was accomplished by infecting exponentially growing High Five insect cell culture at 1.5×10^6 cell/ml with 1:100 ratio of virus. Infections were carried out at 27° C. for 48 hours, harvested by centrifugation, and stored at −80° C. for purification. […]

[1] = test system: mono-methyl arginine in RKO cells; assay: RKO methylation assay (In Cell Western for mono-methyl arginine and DNA content); type: cell-based; details: 72 hours, percent activation of mono-methyl arginine signal normalised to DNA content
Excerpt: RKO adherent cells were purchased from ATCC (American Type Culture Collection), Manassas, Va., USA. DMEM/Glutamax medium, penicillin-streptomycin, heat inactivated fetal bovine serum, 0.05% trypsin and D-PBS were purchased from Life Technologies, Grand Island, N.Y., USA. Odyssey blocking buffer, 800CW goat anti-rabbit IgG (H+L) antibody, and Licor Odyssey infrared scanner were purchased from Licor Biosciences, Lincoln, Nebr., USA. Mono-methyl arginine antibody was purchased from Cell Signaling Technology, Danvers, Mass., USA.
Methanol was purchased from VWR, Franklin, Mass., USA. 10% Tween 20 was purchased from KPL, Inc., Gaithersburg, Md., USA. DRAQ5 was purchased from Biostatus Limited, Leicestershire, UK. […]
First, the ratio for each well was determined by:
Each plate included fourteen control wells of DMSO only treatment (minimum activation) as well as fourteen control wells for maximum activation treated with 20 μM of a reference compound. The average of the ratio values for each control type was calculated and used to determine the percent activation for each test well in the plate. […] Percent activation was determined and EC30 curves were generated using triplicate wells per concentration of compound.

T1 sequence (Q99873 with tags, fused parts or gaps): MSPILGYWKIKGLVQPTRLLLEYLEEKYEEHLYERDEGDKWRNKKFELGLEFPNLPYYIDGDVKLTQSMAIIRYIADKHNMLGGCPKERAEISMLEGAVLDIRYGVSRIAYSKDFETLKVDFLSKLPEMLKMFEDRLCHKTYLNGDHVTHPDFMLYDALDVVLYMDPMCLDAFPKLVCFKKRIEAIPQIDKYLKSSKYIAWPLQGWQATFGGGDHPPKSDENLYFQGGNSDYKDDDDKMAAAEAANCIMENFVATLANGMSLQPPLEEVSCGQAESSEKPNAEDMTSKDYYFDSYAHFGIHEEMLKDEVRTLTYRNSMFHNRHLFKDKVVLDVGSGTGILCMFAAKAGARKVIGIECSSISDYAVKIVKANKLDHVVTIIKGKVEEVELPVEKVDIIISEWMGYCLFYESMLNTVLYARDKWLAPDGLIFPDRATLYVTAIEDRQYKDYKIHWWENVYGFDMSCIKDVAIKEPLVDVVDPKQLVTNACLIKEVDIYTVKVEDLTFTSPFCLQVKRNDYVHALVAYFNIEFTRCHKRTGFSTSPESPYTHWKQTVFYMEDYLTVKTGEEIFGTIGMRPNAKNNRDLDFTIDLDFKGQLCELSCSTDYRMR

Compound	IC50 (PRMT1)	In Cell Western EC30 [1]
3-methyl-N-(3-(4-((methyl (2-(methylamino)ethyl)amino)methyl)-1H-pyrazol-3-yl)phenyl)but-2-enamide [Compound 3]	101 to 1000 nM	
C=C(C)C(=O)Nc1ccc(-c2[nH]ncc2CN(C)CCNC)cc1 [Compound 1, N-(4-(4-((methyl(2-(methylamino)ethyl)amino)methyl)-1H-pyrazol-3-yl)phenyl)methacrylamide]	< 100 nM	B (“B” indicates an EC30 of 3.01-12.00 μM)
C=CC(=O)Nc1ccc(-c2[nH]ncc2CN(C)CCNC)cc1 [Compound 2, N-(4-(4-((methyl(2-(methylamino)ethyl)amino)methyl)-1H-pyrazol-3-yl)phenyl)acrylamide]	101 to 1000 nM	C (“C” indicates an EC30 ≧ 12.01 μM)
